# In US20220372498A1, “STABILIZER FOR ADENO-ASSOCIATED VIRUSES AND METHOD FOR STABILIZING ADENO-ASSOCIATED VIRUSES BY USING SAME” (priority 2020, published 2022):
# What was measured:
# [1] = system: adeno-associated virus serotype 9 (AAV 9); assay: AAV stability according to surfactant concentration (UV-Vis absorbance 600 nm scattering, microscope); assay type: physicochemical; conditions: 0.5 mM tannic acid
# Description: 50 uL of 0.5 mM tannic acid solution was mixed with 1×108 genome/ul AAV solution in which Tween 80, a nonionic surfactant, is present in a concentration of 0.2%, 0.05%, 0.0125%, and 0.003% (w/w) (PBS, pH 7.4), respectively, and about 5 minutes after, UV-Vis absorbance in the 600 nm wavelength band was measured for scattering, and crystal formation was observed under a microscope.
# In addition, under conditions in which Triton X, another nonionic surfactant, is present in a concentration of 0.05%, 0.0125, 0.003%, and 0.0008% (w/w), respectively, AAV and tannic acid solutions were mixed in the same method as above, and the same experiment was performed, and the result was observed.
# 50 uL of 0.5 mM tannic acid solution was mixed with 1×108 genome/ul AAV solution in which the zwitterionic surfactant CHAPS is present in a concentration of 0.4%, 0.1%, 0.025%, 0.006% (w/w) (PBS, pH 7.4), respectively, and after about 5 minutes, UV-Vis absorbance in the 600 nm wavelength band was measured for scattering, and crystal formation was observed under a microscope.
# 50 uL of 0.5 mM tannic acid solution was mixed with 1×108 genome/ul AAV solution in which the cationic surfactant CTAB is present in a concentration of 0.4%, 0.1%, 0.025%, 0.006% (w/w) (PBS, pH 7.4), respectively, and after about 5 minutes, UV-Vis absorbance in the 600 nm wavelength band was measured for scattering, and crystal formation was observed under a microscope.
# 50 uL of 0.5 mM tannic acid solution was mixed with 1×108 genome/ul AAV solution in which the anionic surfactant sodium deoxycholate is present in a concentration of 0.2%, 0.05%, 0.0125%, […] (w/w) (PBS, pH 7.4), respectively, and after about 5 minutes, UV-Vis absorbance in the 600 nm wavelength band was measured for scattering, and crystal formation was observed under a microscope.
# [2] = system: adeno-associated virus serotype 9 (AAV 9); assay: Crystal formation and average particle size after mixing surfactant-treated AAV solution with tannic acid solution (DLS, microscope); assay type: physicochemical; conditions: surfactant 0.05% (w/w) in AAV solution (PBS, pH 7.4) + 0.5 mM tannic acid, after about 10 minutes
# Description: The present inventors tried to check the change in AAV stability by treating a surfactant to solve the problem of AAV aggregation when preparing a gene delivery system using AAV. To this end, the effect was verified for various types of surfactants known in the art. More specifically, after mixing 50 uL of 0.5 mM tannic acid solution with 1×108 genome/ul AAV solution in which each of Tween 80, Triton X, CHAPS, cetrimonium bromide (CTAB), and sodium deoxycholate was present in a concentration of 0.05% (w/w) (PBS, pH 7.4), and then after about 10 minutes, the average particle size was measured through dynamic light scattering (DLS), and the formation of crystals that could cause blood vessel clogging was observed under a microscope. At this time, as a condition not treated with a surfactant, 50 uL of a 1×108 genome/ul AAV solution (PBS, pH 7.4) was mixed with 50 uL of 0.5 mM tannic acid solution, and average particle size measurement and microscopic observation were performed in the same manner as above.
# [3] = Viability of mice after tail vein injection of AAV / tannic acid / Tween 80 mixtures; conditions: in vivo
# From the text: On the other hand, the presence or absence of the formation of such crystalline particles is one of the major factors affecting the survival of experimental animals in animal experiments. Crystalline particles of more than 10 μm can block capillaries in the body, and clogged blood vessels can cause ischemic disease, myocardial infarction, cerebral infarction, rupture of blood vessels, etc., and in severe cases, leading to death. Therefore, the present inventors tried to experimentally confirm how the crystallinity was confirmed in the results of FIG. 1A affects the survival of mice. To this end, 50 uL of 0.5 mM or 0.25 mM tannic acid solution was mixed with 50 uL of 2×109 genome/ul AAV solution containing Tween 80 in a concentration of 0.01% (w/w) (PBS, pH 7.4), and then viability was confirmed by injecting 100 uL of mixed solution into the tail vein of the mouse within about 30 minutes (0.01% (w/w) Tween 80+0.5 mM TA+AAV/0.01% (w/w) Tween 80+0.25 mM TA+AAV). In addition, as a condition with the absence of surfactant, 50 uL of 2×109 genome/ul AAV solution without Tween 80 was mixed with tannic acid under the same conditions and injected into the tail vein of mice (0.5 mM TA+AAV/0.25 mM TA+AAV). […]
# [4] = system: adeno-associated virus serotype 9 (AAV 9); assay: Crystal formation after mixing FBS with surfactant-containing AAV and tannic acid (microscope); assay type: physicochemical; conditions: surfactant 0.05% (w/w), 0.5 mM tannic acid, then 50 uL of 10% FBS
# Description: Furthermore, the present inventors have attempted to verify whether the formation of a potential crystal structure that may block blood vessels when mixed with plasma may be suppressed through the treatment of a surfactant additionally. To this end, 50 uL of 0.5 mM tannic acid solution was mixed with 50 uL of 1×108 genome/ul AAV solution (PBS, pH 7.4) containing each of CTAB, Tween 80, and CHAPS in a concentration of 0.05% (w/w), and then about 5 minutes after, 50 uL of 10% FBS solution was mixed and observed whether crystals of 10 μm or larger were formed under a microscope.
# [5] = system: adeno-associated virus serotype 9 (AAV 9); assay: AAV stability with albumin alone (DLS, microscope); assay type: physicochemical; conditions: 0.5 mM tannic acid, about 10 minutes
# Description: 50 uL of 0.5 mM tannic acid solution was mixed with 1×108 genome/ul AAV solution in which the albumin is present at various concentrations of 10%, 1%, 0.1%, 0.01% (w/w) (PBS, pH 7.4), respectively, and after about 10 minutes, the average particle size was measured through dynamic light scattering, and particle formation was observed under a microscope.
# [6] = system: adeno-associated virus serotype 9 (AAV 9); assay: In vitro stability of particle size over time (DLS; UV-Vis 600 nm scattering); assay type: physicochemical; conditions: surfactant 0.05% (w/w); 0 min, 30 min, 1 day; compared among Tween 80, CHAPS, sodium deoxycholate
# Description: The size and shape of AAV particles must be maintained constantly from mixing to injection. Therefore, it was analyzed whether the particle size was maintained until after 30 minutes, which is a time taken from mixing to injection, and a sufficient time, one day. To this end, 50 uL of 0.5 mM tannic acid solution was mixed with 1×108 genome/ul AAV solution in which Tween 80 is present in a concentration of 0.01% (w/w) (PBS, pH 7.4), and then, after about 5 minutes, the average particle sizes were measured at 0 min, […], and 1 day, respectively, through a dynamic light scattering method, and the increase in particle sizes was compared with the initial value.
# In addition, 50 uL of 0.5 mM tannic acid solution was mixed with 1×108 genome/ul AAV solution in which various types of surfactants, i.e., Tween 80, CHAPS, and sodium deoxycholate are present in a concentration of 0.05% (w/w) each (PBS, pH 7.4), and then, after about 5 minutes, UV-Vis absorbance of each 600 nm wavelength band was measured at 0 min (min), 30 min, and 1 day (day) to measure the scattering degree. The change in particle size over time was analyzed through an increase in scattering compared to the initial value.
# [7] = surfactant 0.003% (w/w), PBS pH 7.4, about 5 minutes
# [8] = surfactant 0.0125% (w/w), PBS pH 7.4, about 5 minutes
# [9] = surfactant 0.006% (w/w), PBS pH 7.4, about 5 minutes
# [10] = surfactant 0.025% (w/w), PBS pH 7.4, about 5 minutes
# [11] = surfactant 0.4% (w/w), PBS pH 7.4, about 5 minutes
molecule,measurement,setting,value
Triton X,particle / crystal formation,"[1]; surfactant 0.0008% (w/w), PBS pH 7.4, about 5 minutes",nano-sized particles were formed
same,particle / crystal formation,[1]; [7],nano-sized particles were formed
same,particle / crystal formation,[1]; [8],crystal structure was formed
same,particle / crystal formation,"[1]; surfactant 0.05% (w/w), PBS pH 7.4, about 5 minutes",crystal structure was formed
same,formation of crystalline particles in which AAV was aggregated (microscope),[2],not observed
"O=C(OC[C@H]1O[C@@H](OC(=O)c2cc(O)c(O)c(OC(=O)c3cc(O)c(O)c(O)c3)c2)[C@H](OC(=O)c2cc(O)c(O)c(OC(=O)c3cc(O)c(O)c(O)c3)c2)[C@@H](OC(=O)c2cc(O)c(O)c(OC(=O)c3cc(O)c(O)c(O)c3)c2)[C@@H]1OC(=O)c1cc(O)c(O)c(OC(=O)c2cc(O)c(O)c(O)c2)c1)c1cc(O)c(O)c(OC(=O)c2cc(O)c(O)c(O)c2)c1 [TA, tannic acid]",Result (viability of mouse),[3],Survival
"CCCCCCCCCCCCCCCC[N+](C)(C)C.[Br-] [CTAB, cetrimonium bromide]",particle / crystal formation,[1]; [9],crystal structure was formed
same,particle / crystal formation,[1]; [10],nano-sized particles
same,particle / crystal formation,[1]; [11],crystal structure was formed
same,formation of crystals of 10 μm or larger after mixing FBS,[4],crystals are not formed
same,formation of crystalline particles in which AAV was aggregated (microscope),[2],not observed
albumin,particle / crystal formation,[5]; albumin 0.01% (w/w),crystal structure was formed
same,particle / crystal formation,[5]; albumin 0.1% (w/w),micro-sized particles were formed
same,particle / crystal formation,[5]; albumin 1% (w/w),crystal structure was formed
same,particle / crystal formation,[5]; albumin 10% (w/w),crystal structure was formed
Tween 80,particle / crystal formation,[1]; [7],crystal structure was formed
same,particle / crystal formation,[1]; [8],nano-sized particles
same,particle / crystal formation,"[1]; surfactant 0.2% (w/w), PBS pH 7.4, about 5 minutes",crystal structure was formed
same,formation of crystals of 10 μm or larger after mixing FBS,[4],crystals are not formed
same,"change in particle size over time (increase in scattering, UV-Vis 600 nm)",[6],most stably maintained
same,formation of crystalline particles in which AAV was aggregated (microscope),[2],not observed
sodium deoxycholate,particle / crystal formation,"[1]; all concentrations: 0.2%, 0.05%, 0.0125%, 0.0003% (w/w), PBS pH 7.4",crystal structure was formed
same,formation of crystalline particles in which AAV was aggregated (microscope),[2],large fibrous particles were observed
"C[C@H](CCC(=O)NCCC[N+](C)(C)CCCS(=O)(=O)[O-])[C@H]1CC[C@H]2[C@@H]3[C@H](O)C[C@@H]4C[C@H](O)CC[C@]4(C)[C@H]3C[C@H](O)[C@]12C [CHAPS, 3-[(3-cholamidopropyl)dimethylammonio]-1-propanesulfonate]",particle / crystal formation,[1]; [9],crystal structure was formed
same,particle / crystal formation,[1]; [10],nano-sized particles were formed
same,particle / crystal formation,"[1]; surfactant 0.1% (w/w), PBS pH 7.4, about 5 minutes",crystal structure was formed
same,particle / crystal formation,[1]; [11],crystal structure was formed
same,formation of crystals of 10 μm or larger after mixing FBS,[4],crystals are not formed
same,formation of crystalline particles in which AAV was aggregated (microscope),[2],not observed
